Source: patent US20040156869A1, “2-substituted quinazolin-4-ylamine analogues” (Neurogen Corporation, priority 2002, published 2004)
Like-named read-outs stand apart in the source and are kept apart here.

Biological target: human capsaicin receptor (VR1) (Homo sapiens, UniProt Q8NER1)
Test: Capsaicin receptor binding assay ([3H]RTX competition, VR1-transfected HEK293 membranes)

Chain of human capsaicin receptor (VR1) (Q8NER1 whole entry): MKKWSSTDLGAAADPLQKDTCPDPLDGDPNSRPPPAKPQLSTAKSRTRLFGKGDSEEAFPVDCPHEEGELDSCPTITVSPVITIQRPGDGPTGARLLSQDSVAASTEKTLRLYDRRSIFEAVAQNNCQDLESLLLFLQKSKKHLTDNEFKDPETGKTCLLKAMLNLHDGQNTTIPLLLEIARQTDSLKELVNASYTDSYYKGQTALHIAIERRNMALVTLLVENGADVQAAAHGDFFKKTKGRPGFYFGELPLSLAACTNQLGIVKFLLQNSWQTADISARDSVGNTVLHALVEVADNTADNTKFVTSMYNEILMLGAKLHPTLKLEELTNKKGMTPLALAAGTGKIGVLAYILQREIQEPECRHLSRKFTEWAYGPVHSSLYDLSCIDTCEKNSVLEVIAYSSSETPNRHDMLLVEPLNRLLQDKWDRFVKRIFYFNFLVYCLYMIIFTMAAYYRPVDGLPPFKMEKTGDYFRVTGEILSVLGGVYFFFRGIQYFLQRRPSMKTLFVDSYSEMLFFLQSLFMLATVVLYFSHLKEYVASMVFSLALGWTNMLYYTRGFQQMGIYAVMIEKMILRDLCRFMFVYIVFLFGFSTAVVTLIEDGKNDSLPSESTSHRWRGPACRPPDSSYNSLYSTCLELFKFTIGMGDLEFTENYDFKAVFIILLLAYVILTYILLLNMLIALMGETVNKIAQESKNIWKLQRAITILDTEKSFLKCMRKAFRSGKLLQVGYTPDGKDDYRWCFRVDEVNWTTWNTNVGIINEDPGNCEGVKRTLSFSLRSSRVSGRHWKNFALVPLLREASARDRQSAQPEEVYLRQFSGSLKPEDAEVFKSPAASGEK

Row | Structure (SMILES) | Ki [nM] | Ki (Table III, [3H]RTX competition binding, capsaicin receptor) [nM]
1 | FC(F)(F)c1ccc(Nc2nc(CN3CCSCC3)nc3cc(-c4ncccc4C(F)(F)F)cnc23)cc1 [Compound 660, [2-Thiomorpholin-4-ylmethyl-7-(3-trifluoromethyl-pyridin-2-yl)-pyrido[3,2-d]pyrimidin-4-yl]-(4-trifluoromethyl-phenyl)-amine] | < 1000 | 
2 | CC1CCCN1Cc1cc(Nc2ccc(C(F)(F)F)cc2)c2ccc(-c3ncccc3C(F)(F)F)nc2n1 (stereo not shown) [Compound 774, [2-(2-Methyl-pyrrolidin-1-ylmethyl)-7-(3-trifluoromethyl-pyridin-2-yl)-[1,8]naphthyridin-4-yl]-(4-trifluoromethyl-phenyl)-amine] | < 1000 | 
3 | OCCN1CCN(Cc2nc(Nc3ccc(C(F)(F)F)nc3)c3ccc(-c4ncccc4C(F)(F)F)cc3n2)CC1 [Compound 492, 2-{4-[7-(3-Trifluoromethyl-pyridin-2-yl)-4-(6-trifluoromethyl-pyridin-3-ylamino)-quinazolin-2-ylmethyl]-piperazin-1-yl}-ethanol] | < 1000 | 
4 | C[C@@H]1CN(Cc2nc(Nc3ccc(C(F)(F)F)nc3)c3ncc(-c4ncccc4C(F)(F)F)cc3n2)C[C@H](C)O1 [Compound 547, [2-(2,6-Dimethyl-morpholin-4-ylmethyl)-7-(3-trifluoromethyl-pyridin-2-yl)-pyrido[3,2-d]pyrimidin-4-yl]-(6-trifluoromethyl-pyridin-3-yl)-amine (cis)] | < 1000 | 
5 | Cc1cccnc1-c1ccc2c(Nc3ccc(C(C)(C)C)nc3)nc(COCC(C)C)nc2n1 [Compound 193, (6-tert-Butyl-pyridin-3-yl)-[2-isobutoxymethyl-7-(3-methyl-pyridin-2-yl)-pyrido[2,3-d]pyrimidin-4-yl]-amine] | < 1000 | 
6 | O=S(=O)(c1ccc(Nc2nc(CN3CCOCC3)nc3cc(-c4ncccc4C(F)(F)F)ccc23)cc1)C(F)(F)F [Compound 580, [2-Morpholin-4-ylmethyl-7-(3-trifluoromethyl-pyridin-2-yl)-quinazolin-4-yl]-(4-trifluoromethanesulfonyl-phenyl)-amine] | < 1000 | 
7 | CC(=O)c1ccc(Nc2nc(CN3C[C@@H](C)O[C@@H](C)C3)nc3cc(-c4ncccc4C(F)(F)F)cnc23)cc1 [Compound 698, 1-{4-[2-(2,6-Dimethyl-morpholin-4-ylmethyl)-7-(3-trifluoromethyl-pyridin-2-yl)-pyrido[3,2-d]pyrimidin-4-ylamino]-phenyl}-ethanone (cis)] | < 1000 | 
8 | COCc1cc(Nc2ccc(C(F)(F)F)cc2)c2ccc(-c3ncccc3C(F)(F)F)nc2n1 [Compound 297, [2-Methoxymethyl-7-(3-trifluoromethyl-pyridin-2-yl)-[1,8]naphthyridin-4-yl]-(4-trifluoromethyl-phenyl)-amine] | < 1000 | 
9 | CC(C)(C)CNC(=O)c1nc(Nc2ccc(C(F)(F)F)cc2)c2ccc(-c3ncccc3C(F)(F)F)nc2n1 [Compound 458, 4-(4-Trifluoromethyl-phenylamino)-7-(3-trifluoromethyl-pyridin-2-yl)-pyrido[2,3-d]pyrimidine-2-carboxylic acid (2,2-dimethyl-propyl)-amide] | < 1000 | 
10 | COCCNC(=O)c1nc(Nc2ccc(C(F)(F)F)cc2)c2ccc(-c3ncccc3C(F)(F)F)nc2n1 [Compound 455, 4-(4-Trifluoromethyl-phenylamino)-7-(3-trifluoromethyl-pyridin-2-yl)-pyrido[2,3-d]pyrimidine-2-carboxylic acid (2-methoxy-ethyl)-amide] | < 1000 | 
11 | COCCN(CCOC)Cc1nc(Nc2ccc(C(C)C(F)(F)F)cc2)c2ccc(-c3ncccc3C(F)(F)F)cc2n1 (stereo not shown) [Compound 527, [2-{[Bis-(2-methoxy-ethyl)-amino]-methyl}-7-(3-trifluoromethyl-pyridin-2-yl)-quinazolin-4-yl]-[4-(2,2,2-trifluoro-1-methyl-ethyl)-phenyl]-amine] | < 1000 | 
12 | CN1CCN(Cc2cc(Nc3ccc(C(F)(F)F)cc3)c3ccc(-c4ncccc4C(F)(F)F)nc3n2)CC1 [Compound 817, [2-(4-Methyl-piperazin-1-ylmethyl)-7-(3-trifluoromethyl-pyridin-2-yl)-[1,8]naphthyridin-4-yl]-(4-trifluoromethyl-phenyl)-amine] | < 1000 | 

Other lines, results leading:

Row | Ki [nM] | Ki (Table III, [3H]RTX competition binding, capsaicin receptor) [nM] | Structure (SMILES)
13 | < 1000 |  | CC(c1ccc(Nc2nc(COCc3ccccc3)nc3cc(-c4ncccc4C(F)(F)F)ccc23)cc1)C(F)(F)F (stereo not shown) [Compound 23, [2-Benzyloxymethyl-7-(3-trifluoromethyl-pyridin-2-yl)-quinazolin-4-yl]-[4-(2,2,2-trifluoro-1-methyl-ethyl)-phenyl]-amine]
14 |  | < 1000 | CC1CC(C)CN(Cc2nc(Nc3ccc(C(F)(F)F)cc3)c3ccc(-c4ncccc4C(F)(F)F)cc3n2)C1 (stereo not shown) [Compound 347, [2-(3,5-Dimethyl-piperidin-1-ylmethyl)-7-(3-trifluoromethyl-pyridin-2-yl)-quinazolin-4-yl]-(4-trifluoromethyl-phenyl)-amine]
15 | < 1000 |  | COCc1nc(Nc2ccc(C(C)C)cc2)c2ccc(-c3ncccc3C)cc2n1 [Compound 78, (4-Isopropyl-phenyl)-[2-methoxymethyl-7-(3-methyl-pyridin-2-yl)-quinazolin-4yl]-amine]
16 | < 1000 |  | CCCN(CCC)C(=O)c1nc(Nc2ccc(C(F)(F)F)cc2)c2ccc(-c3ncccc3C(F)(F)F)nc2n1 [Compound 466, 4-(4-Trifluoromethyl-phenylamino)-7-(3-trifluoromethyl-pyridin-2-yl)-pyrido[2,3-d]pyrimidine-2-carboxylic acid dipropylamide]
17 | < 1000 |  | CCCN(C)Cc1nc(Nc2ccc(C(F)(F)F)cc2)c2ccc(-c3ncccc3C(F)(F)F)cc2n1 [Compound 330]
18 | < 1000 |  | CCOCc1nc(Nc2ccc(C(C)(C)C)cc2)c2ccc(-c3ncccc3Cl)nc2n1 [Compound 132, (4-tert-Butyl-phenyl)-[7-(3-chloro-pyridin-2-yl)-2-ethoxymethyl-pyrido[2,3-d]pyrimidin-4-yl]-amine]
19 | < 1000 |  | CN(C(C)(C)C)S(=O)(=O)c1ccc(Nc2nc(CO)nc3cc(-c4ncccc4C(F)(F)F)ccc23)cc1 [Compound 187, N-tert-Butyl-4-[2-hydroxymethyl-7-(3-trifluoromethyl-pyridin-2-yl)-quinazolin-4-ylamino]-N-methyl-benzenesulfonamide]
20 | < 1000 |  | C[C@@H]1CN(Cc2cc(Nc3ccc(C(F)(F)F)cc3)c3ccc(-c4ncccc4C(F)(F)F)nc3n2)C[C@H](C)O1 [Compound 773, [2-(2,6-Dimethyl-morpholin-4-ylmethyl)-7-(3-trifluoromethyl-pyridin-2-yl)-[1,8]naphthyridin-4-yl]-(4-trifluoromethyl-phenyl)-amine (cis)]
21 | < 1000 |  | CCC1CCCCN1Cc1cc(Nc2ccc(C(F)(F)F)cc2)c2ccc(-c3ncccc3C(F)(F)F)nc2n1 (stereo not shown) [Compound 812, [2-(2-Ethyl-piperidin-1-ylmethyl)-7-(3-trifluoromethyl-pyridin-2-yl)-[1,8]naphthyridin-4-yl]-(4-trifluoromethyl-phenyl)-amine]
22 | < 1000 |  | C[C@@H]1CN(Cc2nc(Nc3ccc(C(F)(F)F)cc3)c3ncc(-c4ncccc4Cl)cc3n2)C[C@H](C)O1 [Compound 615, [7-(3-Chloro-pyridin-2-yl)-2-(2,6-dimethyl-morpholin-4-ylmethyl)-pyrido[3,2-d]pyrimidin-4-yl]-(4-trifluoromethyl-phenyl)-amine (cis)]
